For the data set, the system named is CCRIS mutagenicity, Ames/micronucleus/aberration tests. Briefly: CCRIS mutagenicity studies.
[1] abbreviates: Test System: AMES SALMONELLA TYPHIMURIUM, Strain/Indicator: TA98, Metabolic Activation: NONE, Method: STANDARD PLATE.
[2] abbreviates: Test System: AMES SALMONELLA TYPHIMURIUM, Strain/Indicator: TA100, Metabolic Activation: NONE, Method: STANDARD PLATE.
Where [3] appears, read: Test System: AMES SALMONELLA TYPHIMURIUM, Strain/Indicator: TA100, Metabolic Activation: RAT, LIVER, S-9, AROCLOR 1254, Method: STANDARD PLATE.
The mark [4] stands for this setting: Test System: AMES SALMONELLA TYPHIMURIUM, Strain/Indicator: TA1535, Metabolic Activation: NONE, Method: STANDARD PLATE.
The mark [5] stands for this setting: Test System: AMES SALMONELLA TYPHIMURIUM, Strain/Indicator: TA98, Metabolic Activation: RAT, LIVER, S-9, AROCLOR 1254, Method: STANDARD PLATE.

Calls of active or inactive are those of the source. The rule behind the calls is not given here.

On to `ClC1C(Cl)C(Cl)C(Cl)C(Cl)C1Cl` (stereo unspecified), for which the mutagenic call is, setting by setting: (End Point: IN VITRO CHROMOSOMAL ABERRATIONS, Test System: HUMAN PERIPHERAL BLOOD LYMPHOCYTES, Metabolic Activation: NONE) “active; positive (structural changes)”; (Test System: AMES SALMONELLA TYPHIMURIUM, Strain/Indicator: TA97, Metabolic Activation: NONE, Method: STANDARD PLATE) “inactive; negative”; (Test System: AMES SALMONELLA TYPHIMURIUM, Strain/Indicator: TA97, Metabolic Activation: RAT, LIVER, S-9, AROCLOR 1254, Method: STANDARD PLATE) “inactive; negative”; under setting [1], “inactive; negative”; under setting [2], “inactive; negative”; under setting [3], “inactive; negative”. The mutagenic call (Test System: AMES SALMONELLA TYPHIMURIUM, Strain/Indicator: TA102, Metabolic Activation: NONE, Method: STANDARD PLATE) was “inactive; negative”; the mutagenic call (Test System: AMES SALMONELLA TYPHIMURIUM, Strain/Indicator: TA102, Metabolic Activation: RAT, LIVER, S-9, AROCLOR 1254, Method: STANDARD PLATE) is “inactive; negative”; the mutagenic call (Test System: CHINESE HAMSTER OVARY, Strain/Indicator: CHO (HPRT)/6-THIOGUANINE, Metabolic Activation: NONE) was “inactive; negative”; the mutagenic call (Test System: CHINESE HAMSTER OVARY, Strain/Indicator: CHO (HPRT)/6-THIOGUANINE, Metabolic Activation: S-9) was “inactive; negative”; the mutagenic call (Test System: UDS HUMAN HEPATOCYTES, Strain/Indicator: THY INCORP, Metabolic Activation: NONE, Method: AUTORADIOGRAPHY) is “inactive; negative”; the mutagenic call (Test System: UDS MOUSE HEPATOCYTES, Strain/Indicator: THY INCORP, Metabolic Activation: NONE, Method: AUTORADIOGRAPHY) was “inactive; negative”. Also, the mutagenic call (Test System: UDS RAT HEPATOCYTES, Strain/Indicator: THY INCORP, Metabolic Activation: NONE, Method: AUTORADIOGRAPHY) was “inactive; negative”.
In the case of `O=[N+]([O-])c1cccc2csnc12`, the mutagenic call is, setting by setting: under setting [1], “active; positive”; under setting [2], “active; positive”; (Test System: AMES SALMONELLA TYPHIMURIUM, Strain/Indicator: TA100, Metabolic Activation: S-9, Method: STANDARD PLATE) “active; positive”; under setting [4], “active; positive”; (Test System: AMES SALMONELLA TYPHIMURIUM, Strain/Indicator: TA1535, Metabolic Activation: S-9, Method: STANDARD PLATE) “inactive; negative”; (Test System: AMES SALMONELLA TYPHIMURIUM, Strain/Indicator: TA1537, Metabolic Activation: NONE, Method: STANDARD PLATE) “active; positive”. In addition, the mutagenic call (Test System: AMES SALMONELLA TYPHIMURIUM, Strain/Indicator: TA1537, Metabolic Activation: S-9, Method: STANDARD PLATE) is “inactive; negative”.
On to `CCOS(=O)(=O)c1ccc(C)cc1`, for which the mutagenic call (End Point: IN VITRO MICRONUCLEUS, Test System: MOUSE LYMPHOMA L5178Y CELLS, Metabolic Activation: NONE) was “active; positive”; the mutagenic call (End Point: IN VITRO MICRONUCLEUS, Test System: MOUSE LYMPHOMA L5178Y CELLS, Metabolic Activation: RAT, LIVER, S-9) was “active; positive”; the mutagenic call (End Point: In vitro micronucleus, Test System: Chinese Hamster Ovary (CHO-WBL) cells, Metabolic Activation: None) is “active; positive (p<0.01)”; the mutagenic call under setting [2] was “inactive; negative; authors describe results as weakly positive”; the mutagenic call (Test System: AMES SALMONELLA TYPHIMURIUM, Strain/Indicator: TA100, Metabolic Activation: RAT, LIVER, S-9, Method: STANDARD PLATE) was “inactive; negative; authors describe results as weakly positive”; the mutagenic call under setting [4] was “active; positive”. Moreover, the mutagenic call (Test System: UDS HUMAN FIBROBLASTS, Strain/Indicator: THY INCORP (NON-S-PHASE), Metabolic Activation: NONE, Method: LIQUID SCINTILLATION COUNTING) is “active; positive”.
As for `COc1cc2c(c3oc4cccc(O)c4c(=O)c13)[C@@H]1C=CO[C@@H]1O2`, the mutagenic call is, setting by setting: (End Point: IN VITRO MICRONUCLEUS, Test System: AHH-1 CELLS, Metabolic Activation: NONE) “active; positive”; (End Point: IN VITRO MICRONUCLEUS, Test System: MCL-5 CELLS, Metabolic Activation: NONE) “active; positive”; (Test System: AMES SALMONELLA TYPHIMURIUM, Strain/Indicator: TA98, Metabolic Activation: R,L,S-9, PHENOBARBITAL, Method: STANDARD PLATE) “inactive; negative”; (Test System: AMES SALMONELLA TYPHIMURIUM, Strain/Indicator: TA98, Metabolic Activation: RAT, LIVER, MICROSOMES, PHENOBARBITAL, Method: STANDARD PLATE) “active; positive”; under setting [5], “active; positive”; (Test System: AMES SALMONELLA TYPHIMURIUM, Strain/Indicator: TA98, Metabolic Activation: RAT, LIVER, S-9, KC500 OR PHENOBARBITAL, Method: LIQUID SUSPENSION) “active; positive”. Besides, the mutagenic call (Test System: AMES SALMONELLA TYPHIMURIUM, Strain/Indicator: TA98, Metabolic Activation: RAT, LIVER, S-9, PHENOBARBITAL, Method: STANDARD PLATE) is “inactive; negative”; the mutagenic call (Test System: AMES SALMONELLA TYPHIMURIUM, Strain/Indicator: TA100, Metabolic Activation: NONE, Method: PREINCUBATION) was “active; positive”; the mutagenic call (Test System: AMES SALMONELLA TYPHIMURIUM, Strain/Indicator: TA100, Metabolic Activation: R,L,S-9, PHENOBARBITAL, Method: STANDARD PLATE) is “active; positive”; the mutagenic call (Test System: AMES SALMONELLA TYPHIMURIUM, Strain/Indicator: TA100, Metabolic Activation: RAT, LIVER, MICROSOMES, PHENOBARBITAL, Method: STANDARD PLATE) was “active; positive”; the mutagenic call under setting [3] is “active; positive”; the mutagenic call (Test System: AMES SALMONELLA TYPHIMURIUM, Strain/Indicator: TA100, Metabolic Activation: RAT, LIVER, S-9, KC500 OR PHENOBARBITAL, Method: LIQUID SUSPENSION) is “active; positive”. For the same compound, the mutagenic call was “active; positive” (Test System: AMES SALMONELLA TYPHIMURIUM, Strain/Indicator: TA100, Metabolic Activation: RAT, LIVER, S-9, PHENOBARBITAL, Method: PREINCUBATION); “active; positive” (Test System: AMES SALMONELLA TYPHIMURIUM, Strain/Indicator: TA100, Metabolic Activation: RAT, LIVER, S-9, PHENOBARBITAL, Method: STANDARD PLATE); “active; positive” (Test System: AMES SALMONELLA TYPHIMURIUM, Strain/Indicator: TA1538, Metabolic Activation: RAT, LIVER, S-9, AROCLOR 1254, Method: STANDARD PLATE); “active; positive” (Test System: UDS HUMAN CELLS, Strain/Indicator: THY INCORP (NON-S-PHASE), Metabolic Activation: RAT, LIVER, S-9, PHENOBARBITAL, Method: LIQUID SCINTILLATION COUNTING); “active; positive” (Test System: UDS HUMAN FIBROBLASTS, Strain/Indicator: THY INCORP (NON-S-PHASE), Metabolic Activation: MOUSE, LIVER, S-9, Method: AUTORADIOGRAPHY).
For `O=[N+]([O-])c1ccc(Sc2ccccc2)cc1`, the mutagenic call runs as follows: (Test System: AMES SALMONELLA TYPHIMURIUM, Strain/Indicator: TA98(1,8-DNP6), Metabolic Activation: NONE, Method: STANDARD PLATE) “active; positive”; (Test System: AMES SALMONELLA TYPHIMURIUM, Strain/Indicator: TA98(NR), Metabolic Activation: NONE, Method: STANDARD PLATE) “inactive; negative”; under setting [1], “active; positive”; under setting [5], “active; positive”.
As to `Fc1ccc2c3c(cccc13)-c1c-2ccc2ccccc12`, the mutagenic call reads like this: (Test System: AMES SALMONELLA TYPHIMURIUM, Strain/Indicator: TA97A, Metabolic Activation: RAT, LIVER, S-9, AROCLOR 1254, Method: PREINCUBATION) “active; positive”; (Test System: AMES SALMONELLA TYPHIMURIUM, Strain/Indicator: TA98, Metabolic Activation: RAT, LIVER, S-9, AROCLOR 1254, Method: PREINCUBATION) “active; positive”; (Test System: AMES SALMONELLA TYPHIMURIUM, Strain/Indicator: TA100, Metabolic Activation: RAT, LIVER, S-9, AROCLOR 1254, Method: PREINCUBATION) “active; positive”.

The values above are taken from PubChem BioAssay AID1259407 (Chemical Carcinogenesis Research Information System (CCRIS), 2018).
